structure (smiles),measurement,value
"CCN1C(=N)c2c(OC)cccc2S1(=O)=O [Compound example 3, 2-Ethyl-4-methoxy-1,1-dioxo-1,2-dihydro-1λ*6*-benzo[d]isothiazol-3-ylideneamine]",melting point,111 to 114 °C
